Columns and labels:
[1] = target: T1, Tyrosine-protein phosphatase non-receptor type 1 (Homo sapiens, UniProt P18031); experiment: Inhibition of PTP1B
T1 sequence (P18031 whole entry): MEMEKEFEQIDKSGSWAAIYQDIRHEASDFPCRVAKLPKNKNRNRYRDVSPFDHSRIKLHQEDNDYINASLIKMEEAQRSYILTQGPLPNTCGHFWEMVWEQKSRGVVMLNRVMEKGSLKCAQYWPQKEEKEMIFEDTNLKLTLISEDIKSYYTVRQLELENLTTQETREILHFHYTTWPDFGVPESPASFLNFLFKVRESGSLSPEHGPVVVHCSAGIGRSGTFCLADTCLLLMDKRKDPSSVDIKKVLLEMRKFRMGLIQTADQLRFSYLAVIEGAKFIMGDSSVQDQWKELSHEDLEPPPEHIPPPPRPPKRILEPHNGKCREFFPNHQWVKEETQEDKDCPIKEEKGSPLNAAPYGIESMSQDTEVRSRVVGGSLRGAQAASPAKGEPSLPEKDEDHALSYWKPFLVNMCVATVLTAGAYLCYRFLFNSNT

[2] = target: T2, Tyrosine-protein phosphatase non-receptor type 2 (Homo sapiens, UniProt P17706); experiment: Inhibition of TCPTP
T2 sequence (P17706 whole entry): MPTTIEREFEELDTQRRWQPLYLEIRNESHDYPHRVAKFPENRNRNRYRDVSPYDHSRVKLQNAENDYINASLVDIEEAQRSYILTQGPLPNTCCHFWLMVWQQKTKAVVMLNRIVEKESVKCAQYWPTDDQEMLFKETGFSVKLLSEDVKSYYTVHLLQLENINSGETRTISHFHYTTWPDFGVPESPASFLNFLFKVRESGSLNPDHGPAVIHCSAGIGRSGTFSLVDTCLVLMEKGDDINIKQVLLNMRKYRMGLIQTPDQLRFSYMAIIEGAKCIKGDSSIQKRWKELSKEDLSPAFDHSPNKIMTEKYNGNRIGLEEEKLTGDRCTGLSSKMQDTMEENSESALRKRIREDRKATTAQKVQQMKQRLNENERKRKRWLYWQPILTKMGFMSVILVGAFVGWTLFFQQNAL

| SMILES | IC50 [1] [µM] | IC50 [2] [µM] |
| --- | --- | --- |
| CNC(=O)[C@@H]1Cc2ccc(NS(=O)(=O)O)cc2CN1C(=O)CCC(=O)O | 154 | – |
| CC(C)(C)OC(=O)N1Cc2cc(NS(=O)(=O)O)ccc2C[C@H]1C(=O)NCCc1ccccc1 | 51.4 | – |
| CC(C)(C)OC(=O)N1Cc2cc(NS(=O)(=O)O)ccc2C[C@H]1CO | > 500 | – |
| CNC(=O)[C@@H]1Cc2ccc(NS(=O)(=O)O)cc2CN1C(=O)OC(C)(C)C | 42.5 | 169 |
| CNC(=O)[C@@H]1Cc2ccc(NS(=O)(=O)O)cc2CN1C(=O)CCCc1ccccc1 | 271 | – |
| CNC(=O)[C@@H]1Cc2ccc(NS(=O)(=O)O)cc2CN1C(=O)CCc1cccc(O)c1 | 82.1 | – |
| CNC(=O)[C@H](Cc1ccc(NS(=O)(=O)O)cc1)NC(=O)OC(C)(C)C | 39.6 | 80.1 |
| CNC(=O)[C@@H]1Cc2ccc(NS(=O)(=O)O)cc2CN1C(=O)CCc1ccc(C)cc1 | 198 | – |
| CNC(=O)[C@@H]1Cc2ccc(NS(=O)(=O)O)cc2CN1C(=O)NCc1ccccc1 | 164 | – |
| CC(C)(C)OC(=O)N1Cc2cc(NS(=O)(=O)O)ccc2C[C@H]1C(=O)NCc1ccccc1 | 120 | – |
| CNC(=O)[C@@H]1Cc2ccc(NS(=O)(=O)O)cc2CN1C(=O)CCc1cccc(Cl)c1 | 101 | – |
| CC(C)COC(=O)[C@@H]1Cc2ccc(NS(=O)(=O)O)cc2CN1C(=O)OC(C)(C)C | 16.7 | – |
| CNC(=O)[C@@H]1Cc2ccc(NS(=O)(=O)O)cc2CN1C(=O)CCCCc1ccccc1 | 148 | – |
| CNC(=O)[C@@H]1Cc2ccc(NS(=O)(=O)O)cc2CN1C(=O)CCc1cccc(C(F)(F)F)c1 | 146 | – |
| Cc1noc([C@@H]2Cc3ccc(NS(=O)(=O)O)cc3CN2C(=O)OC(C)(C)C)n1 | 8.23 | – |
| CNC(=O)[C@@H]1Cc2ccc(NS(=O)(=O)O)cc2CN1C(=O)CCc1ccc(C(F)(F)F)cc1 | 225 | – |
| O=C(CCc1cccc(NS(=O)(=O)O)c1)NCc1cccc(NS(=O)(=O)O)c1 | – | 204 |
| O=C(CCc1cccc(NS(=O)(=O)O)c1)N1CCc2ccc(NS(=O)(=O)O)cc2C1 | 26 | 68.6 |
| CNC(=O)[C@@H]1Cc2ccc(NS(=O)(=O)O)cc2CN1C(=O)[C@H](Cc1ccccc1)NC(=O)OC(C)(C)C | > 500 | – |
| CNC(=O)[C@@H]1Cc2ccc(NS(=O)(=O)O)cc2CN1C(=O)CCOc1ccccc1 | 83.6 | – |
| CNC(=O)[C@@H]1Cc2ccc(NS(=O)(=O)O)cc2CN1C(=O)CCc1coc2ccccc12 | 36.7 | – |
| CNC(=O)[C@@H]1Cc2ccc(NS(=O)(=O)O)cc2CN1C(=O)CCc1cc(NS(C)(=O)=O)cc(C(F)(F)F)c1 | 184 | – |
| CNC(=O)[C@@H]1Cc2ccc(NS(=O)(=O)O)cc2CN1C(=O)COc1ccccc1 | 95.3 | – |
| CNC(=O)[C@@H]1Cc2ccc(NS(=O)(=O)O)cc2CN1C(=O)CCc1ccccc1 | 64.4 | – |
| CNC(=O)[C@@H]1Cc2ccc(NS(=O)(=O)O)cc2CN1C(=O)COc1cccc(O)c1C(=O)OC | 93.4 | – |
| CNC(=O)[C@@H]1Cc2ccc(NS(=O)(=O)O)cc2CN1C(=O)/C=C/c1coc2ccccc12 | 24.9 | – |
| COC(=O)[C@@H]1Cc2ccc(NS(=O)(=O)O)cc2CN1C(=O)OC(C)(C)C | 19 | – |
| CNC(=O)[C@@H]1Cc2ccc(NS(=O)(=O)O)cc2CN1C(=O)c1ccccc1 | 286 | – |
| CNC(=O)[C@@H]1Cc2ccc(NS(=O)(=O)O)cc2CN1C(=O)CCc1ccc(OC)cc1 | 242 | – |

— ChEMBL document CHEMBL1139672, “1,2,3,4-Tetrahydroisoquinolinyl sulfamic acids as phosphatase PTP1B inhibitors” (Bioorg Med Chem Lett, 2006)
